# Test results as given in patent US20240325420A1, “COMPOSITION INCLUDING PAEONIFLORIN FOR PREVENTION OR TREATMENT OF CACHEXIA AND MUSCLE LOSS” (CHUNG ANG UNIVERSITY INDUSTRY ACADEMIC COOPERATION …, priority 2021, published 2024).
# Experiments:
# Type in all cases: in vivo
# TNF-α, IL-6 and IL-1β = assay: Protein levels of pro-inflammatory cytokines in gastrocnemius muscle, Balb/c mice; conditions: cisplatin-treated
# Method: (§1) In addition, cisplatin-treated mice orally administered the same volume of distilled water were designated as the vehicle group. After completion of drug treatment, the mice of each group were euthanized with 10 mg/kg alfaxalone (Jurox, Rutherford, Australia). Blood was collected in test tubes containing EDTA, and centrifuged, and plasma was separated therefrom. Gastrocnemius and quadriceps skeletal muscles were dissected and weighed. The skeletal muscles were rapidly frozen in liquid nitrogen to be used for RT-qPCR, Western blotting, and ELISA.
# (§2) The levels of TNF-α and interleukin (IL)-6 were measured using respective mouse ELISA kits (Invitrogen, Waltham, MA, USA). IL-1β and GDF-15 levels were measured using respective Quantikine ELISA kits (R&D Systems, Minneapolis, MN, USA).
# [1] = system: Balb/c mice with cisplatin-induced cachexia; assay: Body weight and muscle mass in cisplatin-treated Balb/c mice
# Method: (§3) The animal experiments were performed in accordance with internationally accepted principles for laboratory animal use and care, and the corresponding study protocol was reviewed and approved by the Institutional Animal Care and Use Committee (IACUC) at Chung-Ang University (approval #2021-00022). Four-week-old female C57BL/6 mice and Balb/c mice were purchased from Raonbio Inc. (Yongin, Korea) and were provided with standard laboratory diet and water ad libitum in the animal facility of Chung-Ang University. After a week of acclimation, the mice were intraperitoneally injected three times with 3 mg/kg/day cisplatin, suspended in 200 μL saline, every other day. Control group mice (sham-treated mice) were injected with the same volume of saline under the same regimen. The cisplatin-treated groups were orally administered paeoniflroin (Pae) or megestrol acetate (MA), suspended in 200 μL distilled water, every day until euthanasia.
# Specifically, the cisplatin-treated groups were orally administered paeoniflorin (prepared in Example 1) at a dose of 5 (Pae 5 group), 10 (Pae 10 group), or 20 (Pae 20 group) mg/kg once daily for 9 days. The comparative drug-treated group was orally administered megestrol acetate (MA), which is currently most commonly prescribed for cancer cachexia patients in clinical practice, at a dose of 160 mg/kg (=800 mg [daily human dose]/60 kg [average human body weight]×12 [dose equivalent factor based on human:mouse body surface area ratio], once daily for 9 days.
# as §1
# TNF-α = assay: Plasma TNF-α by ELISA in mice with cisplatin-induced cachexia; conditions: C57B/6 mice; cisplatin plus paeoniflorin-treated group vs cisplatin-treated group; FIG. 13A
# Method: as §1, §2
# The protein concentration of the pro-inflammatory cytokine TNF-α in the plasma of mice was analyzed by ELISA.
# [2] = system: Balb/c mice with cisplatin-induced cachexia; assay: Skeletal muscle function test in cisplatin-treated Balb/c mice; conditions: oral paeoniflorin
# Method: as §3, with “Control group mice (sham-treated mice) were injected with the same volume of saline under the same regimen. The cisplatin-treated groups were orally administered paeoniflroin (Pae) or megestrol acetate (MA), suspended in 200 μL distilled water, every day until euthanasia.” left out
# A skeletal muscle function test was conducted one day before euthanasia. Muscle strength of each mouse was measured by the grip strength of front paws, and endurance of each mouse was measured by treadmill running time until exhaustion. Motor coordination was measured by retention time on a rotating cylinder with a diameter of 3 cm (Castro and Kuang, 2017). The grip strength of each mouse was measured using a grip strength meter (Bio-GS3, Bioseb, Vitrolles, France). The treadmill running time of each mouse was measured on a treadmill (Exer-3/6, Columbus Instruments, […], USA). The ability of each mouse to stay on a rotating cylinder was measured using a rotarod apparatus (Panlab, Barcelona, Spain).
# [3] = system: TNF-α, IL-6, IL-1β, IL-1α, CCL2 and CCL5; assay: mRNA levels of pro-inflammatory cytokines and chemokines in skeletal muscle by real-time PCR, C57BL/6 mice; conditions: cisplatin-treated, Pae 10 and Pae 20 vs vehicle
# Method: as §1
# (§4) Total RNA was isolated from skeletal muscle using Qiazol (Qiagen, Germany), and then the mRNA levels of pro-inflammatory cytokines and muscle-specific ubiquitin E3 ligases (MuRF1 and MAFbx) were measured by real-time PCR.
# The mRNA levels of pro-inflammatory cytokines such as TNF-α, IL-6, IL-1β, and IL-1α, as well as chemokines such as CCL2 and CCL5, in the skeletal muscle, were measured by real-time PCR.
# [4] = system: muscle-specific ubiquitin E3 ligases (MuRF1 and MAFbx); assay: mRNA levels of MuRF1 and MAFbx in gastrocnemius muscle by real-time PCR; conditions: C57BL/6 mice, cisplatin-treated, Pae 10 and Pae 20 vs vehicle, FIG. 5
# Method: as §1, §4
# In order to measure the mRNA and protein levels of major factors involved in muscle loss, muscle contraction, and muscle differentiation, the mRNA and protein levels in the skeletal muscle tissues from C57BL/6 mice were measured by real-time PCR and Western blotting.
# GDF-15 = GDF-15 by ELISA in C57BL/6 mice with Lewis lung carcinoma-induced cachexia; conditions: Lewis lung carcinoma-injected, paeoniflorin orally for 9 days, FIG. 18
# Method: Each mouse of the control group was injected subcutaneously with 100 μL of saline solution. For the cachexia-induced groups, Lewis lung carcinoma cells (C57BL/6 mice) or colon-26 carcinoma cells (Balb/c mice) were injected subcutaneously into the flank area of each mouse at a dose of 10^6 cells/100 μL/mouse. […] After completion of 9 days of administration, the muscle strength of the mice was measured using a grip strength test device (Bioseb, USA), and the endurance of the mice was measured using a treadmill device (Columbus Instrument, USA).
# After completion of the experiment, the mice were euthanized, blood was collected therefrom, the body weight excluding tumors, and the weights of the hind limb gastrocnemius muscle and quadriceps muscle were measured. GDF-15 in the serum was quantified by ELISA.
# After oral administration of paeoniflorin to the tumor-induced mice for 9 days, blood was collected from the mice, and the plasma concentration of GDF-15 protein was analyzed by ELISA.
smiles,measurement,setting,value
C[C@@]12C[C@@]3(O)O[C@@H](O1)[C@]1(COC(=O)c4ccccc4)[C@H]3C[C@@]12O[C@@H]1O[C@H](CO)[C@@H](O)[C@H](O)[C@H]1O [paeoniflorin],TNF-α protein level in the gastrocnemius muscle,"TNF-α, IL-6 and IL-1β; FIG. 9A",similarly obtained
same,IL-6 protein level in the gastrocnemius muscle,"TNF-α, IL-6 and IL-1β; FIG. 9B",similarly obtained
same,IL-1β protein level in the gastrocnemius muscle,"TNF-α, IL-6 and IL-1β; FIG. 9C",similarly obtained
same,body weight,"[1]; Pae 5, Pae 10, Pae 20 (mg/kg orally daily) vs negative control group, FIG. 2A",increased
same,weight of gastrocnemius muscle,"[1]; Pae 5, Pae 10, Pae 20 vs negative control group, FIG. 2B",increased
same,weight of quadriceps muscle,"[1]; Pae 5, Pae 10, Pae 20 vs negative control group, FIG. 2C",increased
same,plasma concentration of TNF-α,TNF-α,significantly decreased
same,muscle strength,[2]; FIG. 4A,similarly restored
same,endurance,[2]; FIG. 4B,similarly restored
same,TNF-α mRNA expression level in the muscle,[3]; FIG. 8A,decreased
same,IL-6 mRNA expression level in the muscle,[3]; FIG. 8B,decreased
same,IL-1β mRNA expression level in the muscle,[3]; FIG. 8C,decreased
same,IL-1α mRNA expression level in the muscle,[3]; FIG. 8D,decreased
same,CCL2 mRNA expression level in the muscle,[3]; FIG. 8E,decreased
same,CCL5 mRNA expression level in the muscle,[3]; FIG. 8F,decreased
same,MAFbx mRNA level,[4],decreased
same,MuRF1 mRNA level,[4],decreased
same,serum concentration of GDF-15,GDF-15,significantly decreased
